Key:
Assay type in all cases: cell-based
[1] = tested on: P. aeruginosa; experiment: Preservative activity in cream, Method A inoculum (text of Example 4); details: 0.5% Octanediol; organism at 10^5 cfu/gm (so in the source)
Protocol: (§1) Method of evaluation—Method A: 500 μl or 250 μl of each of the following preservatives was added to 49.5/49.75 gm of the cream base to obtain the desired concentrations for testing as in Table 3, and mixed well. 1.0 gm of this base+preservative formulation was dispensed into several culture tubes and each tube was inoculated with 10 μl of culture containing 10^5 cfu (colony forming units) of test organism. The tubes were incubated at room temperature. After 24 hours the tubes were removed and 9 ml of drug inactivating medium was added and mixed. After making another dilution (1:10) with drug inactivating medium, a 0.5 ml aliquot was subcultured on to a TSA plate. Colony counts were measured after 24 hours incubation at 37° C.
(§2) Evaluation of the synergistic activity of octanediol and AHA combinations against higher concentrations of P. aeruginosa. Since 0.5% Octanediol kills 100% of P. aeruginosa at a concentration of 10^5 cfu/gm, the test was repeated with this organism at 10^7 cfu/gm.

[2] = tested on: C. albicans; experiment: Method C, oil/water base incubated at 30° C. (Examples 7 and 8); details: 10^7 cfu/gm, 24 hours
Protocol: Evaluation of the effect of various preservative compositions incorporated in an oil/water base against C. albicans (yeast) incubated at 30° C. Yeast and fungi grow optimally at 30° C. and therefore the efficacy of the preservative was evaluated at this temperature.
Method of evaluation: Method C: Same as Method B except that incubation was at 30° C. and subculturing is done on Sabouraud agar.
The following preservatives at 1.0% and 0.5% concentrations were added to the cream. C. albicais at 10^7 cfu/gm base was added to the base and incubated at 30° C. for 24 hours.
Efficacy of preservatives incorporated in the oil/water base and inoculated with the yeast C. albicans and fungus Aspergillus niger.
The cream base and the cream containing the preservatives were inoculated with 10^7 cfu of C. albicans/gm and 105 cfu of Aspergillus niger/gm; and incubated at 30° C. for 24 hours and 48 hours.
Method of Evaluation: Testing was done using Method C.

[3] = tested on: C. albicans; experiment: Method B, Symrise oil/water cream base (Examples 5 and 6); details: for Colony counts (CFU/gm) C. albicans: 0.2% w/w in Symrise oil/water cream, 10^7 CFU/gm
Protocol: Activity of lower concentration of Symdiol™ (0.2% w/w) with organic acids was measured. The cream base used in this study was supplied by Symrise Corporation. This base is an oil/water base. […] Method of evaluation: Method B was used for this test. Method B: Same as described in Method A except a higher inoculum was used. […] Microbial growth measured as CFU was counted after 24 hour incubation at 37° C. The cream base used in this study was supplied by Symrise Corporation. This base is an oil/water base. […] Method of evaluation: Method B was used for this test with C. albicans as test organism.

[4] = tested on: P. aeruginosa; experiment: Efficacy of preservatives against higher concentrations of P. aeruginosa (Example 4); details: 10^7 cfu per gm cream, 37° C.
Protocol: as §1, §2
Method of evaluation: Same as described in Method A except a higher inoculum was used. A 100 μl inoculum containing 10^7 cfu of P. aeruginosa was added to each 1 gm of cream and incubated at 37° C.

[5] = tested on: S. aureus; experiment: Preservative activity in cream base, Method A (Example 3); details: 10^5 cfu inoculum, room temperature, 24 hours
Protocol: as §1
(§3) Result: Preservative activity of various creams utilizing a concentration of test organism of 10^5 cfu/gm and incubation at room temperature is shown in Table 4.

[6] = tested on: E. coli; experiment: as above; details: 10^5 cfu inoculum, room temperature, 24 hours
Protocol: as §1, §3

[7] = tested on: C. albicans; experiment: as above; details: 10^5 cfu inoculum, room temperature, 24 hours
Protocol: as §1, §3

[8] = tested on: P. aeruginosa; experiment: Method B, Symrise oil/water cream base (Example 5); details: 0.2% w/w in Symrise oil/water cream; 10^7 CFU/gm; 37° C., 24 hour
Protocol: (§4) Activity of lower concentration of Symdiol™ (0.2% w/w) with organic acids was measured. The cream base used in this study was supplied by Symrise Corporation. This base is an oil/water base.
(§5) Method of evaluation: Method B was used for this test. Method B: Same as described in Method A except a higher inoculum was used. A 100 μL inoculum containing 10^7 CFU of test organism was added to each 1 gm of cream and incubated at 37° C. Microbial growth measured as CFU was counted after 24 hour incubation at 37° C.

[9] = tested on: S. aureus; experiment: Method B, Symrise oil/water cream base (Example 5); details: 0.2% w/w in Symrise oil/water cream; 10^7 CFU/gm; 37° C., 24 hour
Protocol: as §4, §5

[10] = tested on: E. coli; experiment: Method B, Symrise oil/water cream base (Example 5); details: 0.2% w/w in Symrise oil/water cream; 10^7 CFU/gm; 37° C., 24 hour
Protocol: as §4, §5

[11] = printed as 20% (single ingredient)

CCCCCCC(O)CO (stereo not drawn)
kills P. aeruginosa [1]: 100%
C. albicans (CFU/gm cream) ([2]; printed as 30% (single ingredient)): 1.4 × 10^5 CFU/gm cream
C. albicans (CFU/gm cream) ([2]; printed as 50% (single ingredient)): 0 CFU/gm cream
Colony counts (CFU/gm) C. albicans ([3]; Table 7, Method B): 1.0 × 10^5 CFU/gm
Colony counts (CFU/gm) P. aeruginosa ([4]; 0.5% w/w in cream): 1.6 × 10^3 CFU/gm
Colony counts (CFU)/gm S. aureus ([5]; 0.3% w/w in cream): 4.0 × 10^4 CFU/gm
Colony counts (CFU)/gm S. aureus ([5]; 0.5% w/w in cream): 1.5 × 10^3 CFU/gm
Colony counts (CFU)/gm E. coli ([6]; 0.3% w/w in cream): 5.4 × 10^4 CFU/gm
Colony counts (CFU)/gm E. coli ([6]; 0.5% w/w in cream): 0 CFU/gm
Colony counts (CFU/gm) C. albicans ([7]; 0.3% w/w in cream): 2.0 × 10^5 CFU/gm
Colony counts (CFU/gm) C. albicans ([7]; 0.5% w/w in cream): 5.2 × 10^2 CFU/gm

CC(O)C(=O)O (stereo not drawn) [Lactic acid]
Colony counts (CFU/gm) P. aeruginosa [8]: 2.0 × 10^6 CFU/gm
Colony counts (CFU)/gm S. aureus [9]: 6.0 × 10^4 CFU/gm
Colony counts (CFU)/gm E. coli [10]: 1.2 × 10^6 CFU/gm
C. albicans (CFU/gm cream) ([2]; 0.12% (single ingredient)): 4.2 × 10^6 CFU/gm cream
C. albicans (CFU/gm cream) [2, 11]: 5 × 10^6 CFU/gm cream
Colony counts (CFU/gm) C. albicans ([3]; 37° C., 24 hour): 2.0 × 10^6 CFU/gm
Colony counts (CFU/gm) C. albicans ([3]; Table 7, Method B): 2.0 × 10^6 CFU/gm
Colony counts (CFU/gm) P. aeruginosa ([4]; 0.2% w/w in cream): 2.0 × 10^6 CFU/gm
Colony counts (CFU)/gm S. aureus ([5]; 0.2% w/w in cream): 3.0 × 10^3 CFU/gm
Colony counts (CFU)/gm E. coli ([6]; 0.2% w/w in cream): 2.3 × 10^4 CFU/gm
Colony counts (CFU/gm) C. albicans ([7]; 0.2% w/w in cream): 1.5 × 10^4 CFU/gm

O=C(O)CC(O)(CC(=O)O)C(=O)O [Citric acid]
Colony counts (CFU/gm) P. aeruginosa [8]: 1.0 × 10^6 CFU/gm
Colony counts (CFU)/gm S. aureus [9]: 2.0 × 10^4 CFU/gm
Colony counts (CFU)/gm E. coli [10]: 2.0 × 10^6 CFU/gm
C. albicans (CFU/gm cream) [2, 11]: 2.5 × 10^6 CFU/gm cream
Colony counts (CFU/gm) C. albicans ([3]; 37° C., 24 hour): 2.0 × 10^6 CFU/gm
Colony counts (CFU/gm) C. albicans ([3]; Table 7, Method B): 2.0 × 10^6 CFU/gm
activity of the combination against C. albicans in words (conclusion of Example 6) ([3]; with a lower concentration of octanediol (0.2% w/w)): enhanced activity
Colony counts (CFU/gm) P. aeruginosa ([4]; 0.2% w/w in cream): 2.5 × 10^6 CFU/gm
Colony counts (CFU)/gm S. aureus ([5]; 0.2% w/w in cream): 5.0 × 10^4 CFU/gm
Colony counts (CFU)/gm E. coli ([6]; 0.2% w/w in cream): 7.3 × 10^4 CFU/gm
Colony counts (CFU/gm) C. albicans ([7]; 0.2% w/w in cream): 1.0 × 10^5 CFU/gm

Source: US20080311231A1, “Broad Spectrum Non-Traditional Preservative System” (priority 2005, published 2008)
